{
  "source": "patent US4435583A",
  "about": "“2-Halo-substituted monic acid A useful as antibacterial compounds” (Beecham Group p.l.c., priority 1981, dated 1984)",
  "type_in_all_cases": "cell-based",
  "key": {"M. hyorhinis ATCC 25021": {"test_system": "M. hyorhinis ATCC 25021", "experiment": "In vitro anti-mycoplasmal MIC", "conditions": "Mesomycoplasma hyorhinis, ATCC25021, 144 h, Friis broth, 0.9% agarose, 6 days, 37° C."}, "M. suipneumoniae UCD 1": {"test_system": "M. suipneumoniae UCD 1", "experiment": "In vitro anti-mycoplasmal MIC", "conditions": "Friis broth, 0.9% agarose, 6 days, 37° C."}, "[1]": {"test_system": "M. suipneumoniae NCTC 10110", "experiment": "In vitro anti-mycoplasmal MIC", "conditions": "Friis broth, 0.9% agarose, 6 days, 37° C."}, "M. suipneumoniae Str.11": {"test_system": "M. suipneumoniae Str.11", "experiment": "In vitro anti-mycoplasmal MIC", "conditions": "Friis broth, 0.9% agarose, 6 days, 37° C."}, "Staph. aureus 152": {"test_system": "Staph. aureus 152", "experiment": "MIC against veterinary bacteria", "conditions": "Diagnostic Sensitivity Test Agar, 18 hours, 37° C.", "procedure": "(§1) The values were determined using a two fold serial dilutions in Diagnostic Sensitivity Test Agar with an inoculum of 10^4 organisms and incubation for 18 hours at 37° C."}, "Bord. bronchiseptica B09": {"test_system": "Bord. bronchiseptica B09", "experiment": "MIC against veterinary bacteria", "conditions": "Diagnostic Sensitivity Test Agar, 18 hours, 37° C.", "procedure": "as §1"}, "E. coli NCTC 10418": {"test_system": "E. coli NCTC 10418", "experiment": "MIC against veterinary bacteria", "conditions": "Escherichia coli, NCTC10418, Diagnostic Sensitivity Test Agar, 18 hours, 37° C., read-out: MIC", "procedure": "as §1"}, "Past. haemolytica PA5": {"test_system": "Past. haemolytica PA5", "experiment": "MIC against veterinary bacteria", "conditions": "Diagnostic Sensitivity Test Agar, 18 hours, 37° C.", "procedure": "as §1"}, "Strep. dysgalactiae SPD1": {"test_system": "Strep. dysgalactiae SPD1", "experiment": "MIC against veterinary bacteria", "conditions": "Diagnostic Sensitivity Test Agar, 18 hours, 37° C.", "procedure": "as §1"}, "Past. multocida PA2": {"test_system": "Past. multocida PA2", "experiment": "MIC against veterinary bacteria", "conditions": "Diagnostic Sensitivity Test Agar, 18 hours, 37° C.", "procedure": "as §1"}, "E. coli E1": {"test_system": "E. coli E1", "experiment": "MIC against veterinary bacteria", "conditions": "Escherichia coli, Diagnostic Sensitivity Test Agar, 18 hours, 37° C., read-out: MIC", "procedure": "as §1"}, "S. dublin S7": {"test_system": "S. dublin S7", "experiment": "MIC against veterinary bacteria", "conditions": "Salmonella enterica, Diagnostic Sensitivity Test Agar, 18 hours, 37° C., read-out: MIC", "procedure": "as §1"}, "Staph. aureus B4": {"test_system": "Staph. aureus B4", "experiment": "MIC against veterinary bacteria", "conditions": "Diagnostic Sensitivity Test Agar, 18 hours, 37° C.", "procedure": "as §1"}, "Strep. uberis SPU1": {"test_system": "Strep. uberis SPU1", "experiment": "MIC against veterinary bacteria", "conditions": "Strep. uberis SPU1; Diagnostic Sensitivity Test Agar; 18 hours, 37° C.", "procedure": "as §1"}, "Strep. agalactiae SPA1": {"test_system": "Strep. agalactiae SPA1", "experiment": "MIC against veterinary bacteria", "conditions": "Diagnostic Sensitivity Test Agar, 18 hours, 37° C.", "procedure": "as §1"}, "[2]": {"test_system": "Strep. suis (group D) SPS11", "experiment": "MIC against veterinary bacteria", "conditions": "Diagnostic Sensitivity Test Agar, 18 hours, 37° C.", "procedure": "as §1"}, "Bord. bronchiseptica B08": {"test_system": "Bord. bronchiseptica B08", "experiment": "MIC against veterinary bacteria", "conditions": "Bordetella bronchiseptica, B08, 18 h, Diagnostic Sensitivity Test Agar, 37° C., read-out: MIC", "procedure": "as §1"}, "[3]": {"test_system": "Erysipelothrix rhusiopathiae NCTC 8163", "experiment": "MIC against veterinary bacteria", "conditions": "NCTC8163, Diagnostic Sensitivity Test Agar, 18 hours, 37° C., read-out: MIC", "procedure": "as §1"}, "Past. multocida PA1": {"test_system": "Past. multocida PA1", "experiment": "MIC against veterinary bacteria", "conditions": "Diagnostic Sensitivity Test Agar, 18 hours, 37° C.", "procedure": "as §1"}, "S. typhimurium S18": {"test_system": "S. typhimurium S18", "experiment": "MIC against veterinary bacteria", "conditions": "Salmonella enterica, Diagnostic Sensitivity Test Agar, 18 hours, 37° C., read-out: MIC", "procedure": "as §1"}, "[4]": {"test_system": "Corynebacterium pyogenes CY1", "experiment": "MIC against veterinary bacteria", "conditions": "Rhodococcus (subgen. Prescottella) equi, Diagnostic Sensitivity Test Agar, 18 hours, 37° C., read-out: MIC", "procedure": "as §1"}, "Staph. aureus Oxford": {"test_system": "Staph. aureus Oxford", "experiment": "MIC against veterinary bacteria", "conditions": "Diagnostic Sensitivity Test Agar, 18 hours, 37° C.", "procedure": "as §1"}, "[5]": {"test_system": "Corynebacterium xerosis 9755", "experiment": "MIC against human bacteria", "conditions": "nutrient agar, 5% chocolated horse blood, 18 hours, 37° C., read-out: MIC", "procedure": "(§2) The values were determined by serial dilutions in nutrient agar with 5% chocolated horse blood after incubations for 18 hours at 37° C."}, "[6]": {"test_system": "Neisseria catarrhalis 1502", "experiment": "MIC against human bacteria", "conditions": "nutrient agar, 5% chocolated horse blood, 18 hours, 37° C.", "procedure": "as §2"}, "Sarcina lutea 8340": {"test_system": "Sarcina lutea 8340", "experiment": "MIC against human bacteria", "conditions": "Micrococcus luteus, nutrient agar, 5% chocolated horse blood, 18 hours, 37° C., read-out: MIC", "procedure": "as §2"}, "K. aerogenes A": {"test_system": "K. aerogenes A", "experiment": "MIC against human bacteria", "conditions": "Klebsiella aerogenes, nutrient agar, 5% chocolated horse blood, 18 hours, 37° C., read-out: MIC", "procedure": "as §2"}, "M. suipneumoniae MS16": {"test_system": "M. suipneumoniae MS16", "experiment": "In vitro anti-mycoplasmal MIC", "conditions": "Mesomycoplasma hyopneumoniae, MS16, 144 h, Friis broth, 0.9% agarose, 6 days, 37° C."}, "M. bovis NCTC 10131": {"test_system": "M. bovis NCTC 10131", "experiment": "microbe, parasite or virus in culture", "conditions": "Mycobacterium tuberculosis variant bovis, NCTC10131, 144 h"}, "M. suipneumoniae NB12": {"test_system": "M. suipneumoniae NB12", "experiment": "In vitro anti-mycoplasmal MIC", "conditions": "Friis broth, 0.9% agarose, 6 days, 37° C."}, "[7]": {"test_system": "M. bovigenitalium ATCC 14173", "experiment": "In vitro anti-mycoplasmal MIC", "conditions": "144 h, Friis broth, 0.9% agarose, 6 days, 37° C."}, "[8]": {"test_system": "M. hyosynoviae ATCC 25591", "experiment": "In vitro anti-mycoplasmal MIC", "conditions": "144 h, Friis broth, 0.9% agarose, 6 days, 37° C."}, "[9]": {"test_system": "M. suipneumoniae PW/C/210", "experiment": "In vitro anti-mycoplasmal MIC", "conditions": "Mesomycoplasma hyopneumoniae, 144 h, Friis broth, 0.9% agarose, 6 days, 37° C."}, "M. suipneumoniae TAM 6N": {"test_system": "M. suipneumoniae TAM 6N", "experiment": "In vitro anti-mycoplasmal MIC", "conditions": "Friis broth, 0.9% agarose, 6 days, 37° C."}, "[10]": {"test_system": "M. suipneumoniae J2206/183b", "experiment": "In vitro anti-mycoplasmal MIC", "conditions": "Friis broth, 0.9% agarose, 6 days, 37° C."}, "[11]": {"test_system": "M. suipneumoniae ATCC 25095", "experiment": "In vitro anti-mycoplasmal MIC", "conditions": "Friis broth, 0.9% agarose, 6 days, 37° C."}, "M. suipneumoniae LABER": {"test_system": "M. suipneumoniae LABER", "experiment": "In vitro anti-mycoplasmal MIC", "conditions": "Mesomycoplasma hyopneumoniae, 144 h, Friis broth, 0.9% agarose, 6 days, 37° C."}, "M. gallisepticum S6": {"test_system": "M. gallisepticum S6", "experiment": "In vitro anti-mycoplasmal MIC", "conditions": "Mycoplasmoides gallisepticum, 144 h, Friis broth, 0.9% agarose, 6 days, 37° C., read-out: MIC"}, "M. suipneumoniae JF435": {"test_system": "M. suipneumoniae JF435", "experiment": "In vitro anti-mycoplasmal MIC", "conditions": "Friis broth, 0.9% agarose, 6 days, 37° C."}},
  "data": [
    {"compound": "CCOC(=O)C(F)=C(C)CC1OCC(CC2OC2C(C)C(C)O)C(O)C1O", "note": "[Example 1, Ethyl-4-[5S-(2S,3S-epoxy-5S-hydroxy-4S-methylhexyl)-3R, 4R-dihydroxytetrahydropyran-2S-yl]-2-fluoro-3-methylbut-2(Z)-enoate]", "values": [
      {"measurement": "MIC", "setting": "M. hyorhinis ATCC 25021", "value": 0.25, "unit": "µg/mL"},
      {"measurement": "MIC", "setting": "M. suipneumoniae UCD 1", "value": 0.5, "unit": "µg/mL"},
      {"measurement": "MIC", "setting": "[1]", "value": 0.5, "unit": "µg/mL"},
      {"measurement": "MIC", "setting": "M. suipneumoniae Str.11", "value": 0.5, "unit": "µg/mL"},
      {"measurement": "MIC", "setting": "Staph. aureus 152", "value": 0.63, "unit": "µg/mL"},
      {"measurement": "MIC", "setting": "Bord. bronchiseptica B09", "value": 20.0, "unit": "µg/mL"},
      {"measurement": "MIC", "setting": "E. coli NCTC 10418", "value": "> 80", "unit": "µg/mL"},
      {"measurement": "MIC", "setting": "Past. haemolytica PA5", "value": 5.0, "unit": "µg/mL"},
      {"measurement": "MIC", "setting": "Strep. dysgalactiae SPD1", "value": 1.3, "unit": "µg/mL"},
      {"measurement": "MIC", "setting": "Past. multocida PA2", "value": 0.63, "unit": "µg/mL"},
      {"measurement": "MIC", "setting": "E. coli E1", "value": "> 80", "unit": "µg/mL"},
      {"measurement": "MIC", "setting": "S. dublin S7", "value": "> 80", "unit": "µg/mL"},
      {"measurement": "MIC", "setting": "Staph. aureus B4", "value": 0.63, "unit": "µg/mL"},
      {"measurement": "MIC", "setting": "Strep. uberis SPU1", "value": 0.63, "unit": "µg/mL"},
      {"measurement": "MIC", "setting": "Strep. agalactiae SPA1", "value": 2.5, "unit": "µg/mL"},
      {"measurement": "MIC", "setting": "[2]", "value": 20.0, "unit": "µg/mL"},
      {"measurement": "MIC", "setting": "Bord. bronchiseptica B08", "value": 80, "unit": "µg/mL"},
      {"measurement": "MIC", "setting": "[3]", "value": 80, "unit": "µg/mL"},
      {"measurement": "MIC", "setting": "Past. multocida PA1", "value": 1.3, "unit": "µg/mL"},
      {"measurement": "MIC", "setting": "S. typhimurium S18", "value": "> 80", "unit": "µg/mL"},
      {"measurement": "MIC", "setting": "[4]", "value": 80, "unit": "µg/mL"},
      {"measurement": "MIC", "setting": "Staph. aureus Oxford", "value": 0.63, "unit": "µg/mL"},
      {"measurement": "MIC", "setting": "[5]", "value": "> 100", "unit": "µg/mL"},
      {"measurement": "MIC", "setting": "[6]", "value": 0.5, "unit": "µg/mL"},
      {"measurement": "MIC", "setting": "Sarcina lutea 8340", "value": "> 100", "unit": "µg/mL"},
      {"measurement": "MIC", "setting": "K. aerogenes A", "value": "> 100", "unit": "µg/mL"},
      {"measurement": "MIC", "setting": "M. suipneumoniae MS16", "value": 0.25, "unit": "µg/mL"},
      {"measurement": "MIC", "setting": "M. bovis NCTC 10131", "value": 0.025, "unit": "µg/mL"},
      {"measurement": "MIC", "setting": "M. suipneumoniae NB12", "value": 0.5, "unit": "µg/mL"},
      {"measurement": "MIC", "setting": "[7]", "value": 0.025, "unit": "µg/mL"},
      {"measurement": "MIC", "setting": "[8]", "value": 0.25, "unit": "µg/mL"},
      {"measurement": "MIC", "setting": "[9]", "value": 0.25, "unit": "µg/mL"},
      {"measurement": "MIC", "setting": "M. suipneumoniae TAM 6N", "value": 0.5, "unit": "µg/mL"},
      {"measurement": "MIC", "setting": "[10]", "value": 0.5, "unit": "µg/mL"},
      {"measurement": "MIC", "setting": "[11]", "value": 0.5, "unit": "µg/mL"},
      {"measurement": "MIC", "setting": "M. suipneumoniae LABER", "value": 0.25, "unit": "µg/mL"},
      {"measurement": "MIC", "setting": "M. gallisepticum S6", "value": 10, "unit": "µg/mL"},
      {"measurement": "MIC", "setting": "M. suipneumoniae JF435", "value": 0.5, "unit": "µg/mL"}
    ]}
  ]
}
